Reference: patent US20110165173A1, “THERAPEUTIC AGENT AND DETECTION REAGENT FOR ARTERIOSCLEROTIC DISEASE WHICH TARGETS FOR SALUSIN” (PROTEINEXPRESS CO., LTD., priority 2007, published 2011)

Experiments:
[1] = tested on: apoE-deficient mice; assay: Arteriosclerotic lesions of aorta in apoE-deficient mice under continuous subcutaneous administration (oil red O staining); assay type: in vivo; conditions: 0.6 nmol/kg/h continuous subcutaneous
Procedure: Effects of continuous administration of salusin-α and salusin-β on arteriosclerosis were examined with the use of apoE-deficient mice as arteriosclerosis animal models. Herein, antiserum effects of salusin-α or salusin-β were also examined. In addition to examination of arteriosclerotic lesions, foaming of macrophages, which is important for formation of arteriosclerosis primary lesions, was focused on and cholesterol ester accumulation caused by oxidized LDL was assayed. Expression analysis was carried out for scavenger receptors (CD36 and SR-A) capable of recognizing oxidized LDL, an intracellular cholesterol esterification enzyme (acyl-CoA) (cholesterol acyltransferase 1 (ACAT1)), and ATP-binding cassette transporter A1 (ABCA1), ABCG1, and SR-BI, which are involved in the mechanism of extracellular transportation of excessive intracellular free cholesterol (cholesterol efflux).
The above animal experiments were carried out in accordance with the experimental practice guidelines established by Showa University (Japan). All the apoE-deficient mice used for this study were purchased from the Jackson Laboratory (Bar Harbor, Me., U.S.A.).
(§1) 13-week-old male apoE-deficient mice (72 mice) were divided into the following 6 groups: (i) physiological salt saline (control); (ii) salusin-α (0.6 nmol/kg/h); (iii) salusin-β (0.6 nmol/kg/h); (iv) salusin-α (0.6 nmol/kg/h)+anti-salusin-α serum (1.4 μg/kg/h); (v) salusin-β (0.6 nmol/kg/h)+anti-salusin-β serum (1.4 μg/kg/h); and (vi) anti-salusin-β serum (1.4 μg/kg/h). The mice were subjected to continuous subcutaneous administration with the use of an osmotic mini-pump for 4 to 8 weeks. The osmotic mini-pump and the solution contained therein were changed every week.
Mice ingesting a normal diet were subjected to experiments. The following parameters were assayed.
Each collected aorta was cut in the longitudinal direction, followed by oil red O staining for examination of the surface area of each atherosclerosis lesion with lipid pigmentation. Adobe Photoshop (Adobe System Inc., San Jose, Calif., U.S.A.) was used for identification of arteriosclerotic lesions, followed by analysis using NIH Scion Image (Scion Corp., Frederick, Md., U.S.A.) for quantification of the surface area of each lesion. In addition, cross-sections of the vicinity of the aorta (immediately below the aortic valve) were prepared, followed by oil red O staining for detailed analysis of arteriosclerotic lesions.

[2] = tested on: CD36; assay: CD36 expression by macrophages of treated apoE-deficient mice (Western blotting); assay type: in vivo; conditions: four weeks
Procedure: as §1
(§2) Macrophages were collected as in the experiment in (1), and the protein expression of the gene involved in foaming of macrophages (i.e., scavenger receptors CD36 and SR-A capable of recognizing oxidized LDL, intracellular cholesterol esterification enzyme ACAT1, and ABCA1, ABCG1, and SR-BI, which are involved in cholesterol efflux) was analyzed by Western blotting. For the internal standard of the macrophage function, β-actin expression was also examined. For quantification of the band concentration, Analyzer (ATTO Corporation, Tokyo) was used.

[3] = tested on: ATP-binding cassette transporter A1 (ABCA-1) protein expression; assay: ABCA-1 protein expression in human monocyte-derived macrophages (Western blotting); assay type: cell-based; conditions: 0, 0.2, 0.4, 0.6, 0.8, or 1.0 nM during 7-day culture
Procedure: Monocyte-derived macrophages that had been cultured for 7 days were washed with PBS 3 times, followed by solubilization with the addition of 10% SDS (sodium dodecyl sulfate) (100 μL) to each dish. Each cell extraction solution was scooped up with a cell scraper, followed by pulverization with the use of a 1-mL TERUMO syringe and a 23-G injection needle for fragmentation (shearing). The resultant was centrifuged at 15,000 rpm for 3 minutes (Himac CF15D2 high-speed micro refrigerated centrifuge; Hitach, Ltd.). The supernatant protein concentration was assayed by the bicinchoninic acid (BCA) method (Pierce) and used as a cell extraction solution for Western blotting.
For ABCA-1 protein detection, a reaction with an anti-human ABCA-1 antibody was carried out on a transfer membrane at room temperature for 1 hour. For a primary antibody (anti-human ABCA-1 rabbit polyclonal antibody (Funakoshi Corporation)), a stock solution (5 μL) was diluted 1,000-fold with PBS-0.1% Tween 20 (5 mL), and the diluent was used. The transfer membrane was washed with PBS-0.1% Tween 20. Then, a reaction with a secondary antibody (anti-rabbit IgG antibody: anti-rabbit IgG donkey antibody conjugated with horseradish peroxidase (HRP) (GE Healthcare Bio-Science)) was carried out at room temperature for 1 hour. […]

[4] = tested on: ACAT1; assay: ACAT1 expression by macrophages of treated apoE-deficient mice (Western blotting); assay type: in vivo; conditions: four weeks, P<0.05
Procedure: as §1, §2

salusin-α: peptide (SEQ ID NO: 1) comprising 28 amino acid residues, generated by processing from preprosalusin (SGALPPAPAAPRPALRAQRAGPAGPGAK; listed as Homo sapiens)
arteriosclerotic lesion surface area ([1]; eight weeks): reduced to less than half
plaque formation ([1]; eight weeks): obvious plaque formation was not observed
CD36 protein expression ([2]; salusin-α 0.6 nmol/kg/h): did not influence
ABCA-1 protein expression [3]: no significant changes
ACAT1 protein expression relative to initial level ([4]; salusin-α 0.6 nmol/kg/h): approximately half

salusin-β: peptide (SEQ ID NO: 3) comprising 20 amino acid residues, generated by processing from preprosalusin (AIFIFIRWLLKLGHHGRAPP; listed as Homo sapiens) [reference compound]
proximal aorta cross-sections, oil red O staining, compared with control group ([1]; four weeks): formation of atheroma stained red with oil red O and thickening of the blood vessel wall were observed
mean arteriosclerotic lesion surface area of the aortic arch relative to control group ([1]; four weeks, P<0.005): approximately 2.5 times
CD36 protein expression relative to control level ([2]; 0.6 nmol/kg/h, range given jointly for CD36, SR-A, ACAT1, P<0.05): 1.5 to 2.8 times
ABCA-1 protein expression [3]: no significant changes
ACAT1 protein expression relative to control level ([4]; 0.6 nmol/kg/h, range given jointly for CD36, SR-A, ACAT1): 1.5 to 2.8 times
